Like-named read-outs stand apart in the source and are kept apart here.
What was measured:
[1] = male, beagle, dog, in vivo, po
Method: (§1) 4 groups of 1 male beagle dog per group received an oral gavage dose of VS-6063 in various formulations in a 4-session crossover design with a minimum 3-day washout period between dose sessions. In each session, VS-6063, VS-6063-25% SDD in Soluplus/PVP-A, VS-6063-25% physical mixture with Soluplus/PVP-A, and VS-6063-10% SDD in [sequence] L100-55 were administered at a target dose level of 10 mg API/kg. Blood samples (anticoagulant: K2EDTA) were scheduled for collection from each animal prior to dosing and at 0.25, 0.5, 1, 2, 4, 6, 8, 12 and 24 hours after dosing in each dose session. Blood samples were processed for plasma and the plasma was analyzed for VS-6063 by LC-MS/MS. Plasma concentration-time data for individual animals were analyzed to determine the pharmacokinetic profiles of VS-6063.
(§2) 4 groups of 1 male beagle dog per group received an oral gavage dose of VS-6063 in various formulations in a 4-session crossover design with a minimum 3-day washout period between dose sessions. In each session, VS-6063-25% physical mixture with Soluplus/PVP-A and VS-6063-25% SDD in Soluplus/PVP-A were administered at a target dose level of 20 mg API/kg and VS-6063-50% physical mixture with Soluplus/PVP-A was administered at target dose levels of 10 and 20 mg API/kg. Blood samples (anticoagulant: K2EDTA) were scheduled for collection from each animal prior to dosing and at 0.25, 0.5, 1, 2, 4, 6, 8, 12 and 24 hours after dosing in each dose session. Blood samples were processed for plasma and the plasma was analyzed for VS-6063 by LC-MS/MS. Plasma concentration-time data for individual animals were analyzed to determine the pharmacokinetic profiles of VS-6063.
(§3) VS-6063 was formulated (0.934 correction factor) at a target concentration of 10 mg API/mL in 0.5% (w/v) Methocel A4M in water with 0.1% (v/v) Tween 80. VS-6063-25% SDD in Soluplus/PVP-A was formulated (0.25 correction factor) at a target concentration of 10 mg API/mL in 0.5% (w/v) Methocel A4M in water. VS-6063-25% physical mixture with Soluplus/PVP-A was formulated (0.25 correction factor) at a target concentration of 10 mg API/mL in 0.5% (w/v) Methocel A4M in water. VS-6063-10% SDD in [sequence] L100-55 was formulated (0.10 correction factor) at a target concentration of 10 mg API/mL in 0.5% (w/v) Methocel A4M in water.
(§4) VS-6063-25% physical mixture with Soluplus/PVP-A and VS-6063-25% SDD in Soluplus/PVP-A were formulated (0.25 correction factor) at a target concentration of 10 mg API/mL in 0.5% (w/v) Methocel A4M in water. VS-6063-50% Physical mixture with Soluplus/PVP-A was formulated (0.50 correction factor) at target concentrations of 5 mg API/mL and 10 mg API/mL in 0.5% (w/v) Methocel A4M in water.
(§5) 4 groups of 1 male beagle dog per group received an oral gavage dose of VS-6063 in various formulations in a 4-session crossover design with a minimum 3-day washout period between dose sessions. In each session, VS-6063, VS-6063-25% SDD in Soluplus/PVP-A, VS-6063-25% physical mixture with Soluplus/PVP-A and VS-6063-10% SDD in [sequence] […] Food was returned at 4 hours post-dose.
(§6) Prior to dosing, the body weight of each animal was recorded. Doses (rounded to the nearest 0.01 mL) were calculated based on the pretreatment body weight (kg) and a dose volume of 1 mL/kg. Following the oral gavage dose, the gavage tube was flushed with 10 to 20 mL of water prior to removal of the tube. Dosing syringes were weighed immediately prior to and immediately after dosing each animal, and the quantity of formulation administered to each animal was determined from the difference in syringe weights.
(§7) 4 groups of 1 male beagle dog per group received an oral gavage dose of VS-6063 in various formulations in a 4-session crossover design with a minimum 3-day washout period between dose sessions.

[2] = Phase I study: safety and tolerability (adverse events) of VS-6063 tablets; assay type: in vivo, human (healthy male subjects)
Text: In a Phase I, open-label, single center, single dose, partially randomized trial, the safety, bioavailability, and pharmacodynamics of prototype and reference formulations of VS-6063 were investigated in healthy male subjects. The study was comprised of four periods, each of which adhered to the same study design and involved 24 healthy male subjects between 40 and 65 years of age with a body mass index between 18.0 and 35.0 kg/m^2. Following a 28 day screening period, the subjects were admitted to the clinical unit the morning prior to dosing day (Day −1) and were dosed in the morning of Day 1. Subjects in Regimens A and B were administered VS-6063 following an overnight fast of about 10 hours, while subjects in Regimens C and D were administered VS-6063 within 30 minutes of starting a high fat breakfast, which was consumed within 25 minutes. Subjects remained on site until 36 hours after dosing. There was a minimum washout period of 7 days between the administration of each regimen. A follow-up phone call took place 7 to 10 days post final dose in periods 3 and 4 to ensure the ongoing well-being of the subjects.

[3] = in vivo; details: male, beagle, dog, po
Method: as §1, §2, §3, §4, §5, §6, §7

Mean AUCinf/Dose [1]: 312 ng·h/mL per mg/kg | Tmax [1]: 2.50 h | Tmax ([1]; 10 mg/kg): 4 h | Tmax ([3]; 10 mg/kg): 2 h | half-life ([3]; 10 mg/kg, t1/2): ~3.9 h | Tmax [3]: 2 to 4 h
Compound: CNC(=O)c1ccc(Nc2ncc(C(F)(F)F)c(NCc3nccnc3N(C)S(C)(=O)=O)n2)cc1 [VS-6063]
incidence of AEs ([2]; Regimen A (200 mg reference, fasted)): 3 subjects | incidence of AEs ([2]; Regimen B (100 mg prototype, fasted)): 2 subjects | incidence of AEs ([2]; Regimen C (fed)): 5 subjects | incidence of AEs ([2]; Regimen D (fed)): 1 subject | tolerability ([2]; single dose, fed and fasted, reference and prototype formulations): well tolerated | serious or severe adverse events ([2]; whole study): no serious adverse events (AEs) or severe AEs | total AEs reported ([2]; whole study, reported by 9 subjects): 12 AEs

Source: patent US20150190346A1, “COMPOSITIONS AND METHODS FOR TREATMENT OF ABNORMAL CELL GROWTH” (VERASTEM, INC., priority 2014, published 2015)
